The nature of data set [1]: Metabolic stability of compound in phosphate buffer in presence of human CYP3A4 and NADPH. It is filed as ADME.
The next data set deals with HL-60. Description: Cytotoxicity against human HL60 cells after 96 hrs by MTT assay. The settings on record: HL-60, 96 h.
The subject of another data set is PC-3. Kind of data set: Cytotoxicity against human PC3 cells after 96 hrs by MTT assay. The settings on record: PC-3, 96 h.
Another data set has as its system MDA-MB-231. Description: cells. Particulars: Homo sapiens, MDA-MB-231, 96 h.
Data set [2] has as its target T1, E3 ubiquitin-protein ligase XIAP (Homo sapiens, UniProt P98170).
Description: Binding affinity to human recombinant XIAP linker BIR2-BIR3 expressed in Escherichia coli BL21 by fluorescence polarization assay
Data set [3] is described as follows: Solubility at pH 7.4. It counts as physicochemical. The settings on record: buffer.
For data set [4], the target named is T1, E3 ubiquitin-protein ligase XIAP. This is another data set of the same source.
Description: Binding affinity to human recombinant XIAP BIR3 domain expressed in Escherichia coli BL21 by fluorescence polarization assay
A short description of data set [5]: Solubility at pH 3. It is filed as physicochemical. The settings on record: buffer.

T1 sequence (P98170 whole entry): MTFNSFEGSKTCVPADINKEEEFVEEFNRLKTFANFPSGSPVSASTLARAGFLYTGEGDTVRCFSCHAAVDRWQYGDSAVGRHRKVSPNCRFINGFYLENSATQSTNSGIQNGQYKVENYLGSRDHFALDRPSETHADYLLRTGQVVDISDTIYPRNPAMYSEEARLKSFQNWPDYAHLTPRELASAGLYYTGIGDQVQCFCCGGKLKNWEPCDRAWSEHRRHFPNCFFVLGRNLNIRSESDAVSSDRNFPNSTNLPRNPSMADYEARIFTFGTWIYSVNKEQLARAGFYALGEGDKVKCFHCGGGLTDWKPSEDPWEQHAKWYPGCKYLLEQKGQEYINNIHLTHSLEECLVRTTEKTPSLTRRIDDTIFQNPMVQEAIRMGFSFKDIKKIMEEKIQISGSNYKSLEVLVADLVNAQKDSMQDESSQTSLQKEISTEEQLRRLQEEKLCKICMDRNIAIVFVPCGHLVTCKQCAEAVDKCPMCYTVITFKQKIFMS
Description for MDA-MB-231: Cytotoxicity against human MDA-MB-231 cells after 96 hrs by MTT assay

As to `CC[C@H](NC)C(=O)N[C@H]1CCC[C@H]2CC[C@@H](C(=O)NC(c3ccccc3)c3ccccc3)N2C1=O`, in data set [1], the Stability amounted to 83%. For the same molecule, the IC50 with HL-60 was 20.2 µM; with PC-3, 56.9 µM; with MDA-MB-231 it was 0.146 µM.
For the molecule `CC[C@H](N)C(=O)N[C@H]1CCC[C@H]2CC[C@@H](C(=O)NC(c3ccccc3)c3ccccc3)N2C1=O`, the Stability in data set [1] is 87%. Moreover, the IC50 was 24.5 µM with HL-60, over 100 µM with PC-3 and over 100 µM in the data set with MDA-MB-231.
Take `CC[C@H](NC)C(=O)N[C@@H]1C(=O)N2[C@@H](CC[C@@H]1CO)CC[C@H]2C(=O)NC(c1ccccc1)c1ccccc1`: in data set [1], the Stability was determined as 86%. The concentration for half-maximal inhibition (IC50) is 26.1 µM in the data set with HL-60, over 100 µM with PC-3 and […] in the data set with MDA-MB-231.
On the same counts, the results for `CC[C@H](NC)C(=O)N[C@@H]1C(=O)N2[C@@H](CC[C@@H]1CN)CC[C@H]2C(=O)NC(c1ccccc1)c1ccccc1` are 78%, 51.8 µM, 51.7 µM and 0.542 µM.
On the same counts, the results for `CC[C@H](N)C(=O)N[C@@H]1C(=O)N2[C@@H](CC[C@@H]1CO)CC[C@H]2C(=O)NC(c1ccccc1)c1ccccc1` are 79%, 6.5 µM, over 100 µM and 1.03 µM.
In the same order, the values of `CCNCC[C@H]1CC[C@H]2CC[C@@H](C(=O)NC(c3ccccc3)c3ccccc3)N2C(=O)[C@H]1NC(=O)[C@H](CC)NC` are 90%, 76.4 µM, over 100 µM and 1.3 µM.
Regarding `CC[C@H](N)C(=O)N[C@@H]1C(=O)N2[C@@H](CC[C@@H]1CCN)CC[C@H]2C(=O)NC(c1ccccc1)c1ccccc1`, the Stability in data set [1] was 75%. Besides, the IC50 in the data set with HL-60 came to 25 µM; in the data set on PC-3, 85.2 µM; in the data set on MDA-MB-231, 12.9 µM; in data set [2] it was 0.086 µM.
As for `CC[C@H](NC)C(=O)N[C@@H]1C(=O)N2[C@@H](CC[C@@H]1CCN)CC[C@H]2C(=O)NC(c1ccccc1)c1ccccc1`, in data set [1], the Stability stood at 86%. In addition, the IC50 with HL-60 is 31 µM; in the data set with PC-3, over 100 µM; in the data set with MDA-MB-231, 2.3 µM.
On the same counts, the results for `CC[C@H](N)C(=O)N[C@@H]1C(=O)N2[C@@H](CC[C@@H]1CCNC(=O)c1ccccc1)CC[C@H]2C(=O)NC(c1ccccc1)c1ccccc1` are 65%, 50.7 µM, over 100 µM and 0.93 µM.
As for `CC[C@H](NC)C(=O)N[C@@H]1C(=O)N2[C@@H](CC[C@@H]1CCNC(=O)c1ccccc1)CC[C@H]2C(=O)NC(c1ccccc1)c1ccccc1`, in data set [1], the Stability was 43%. Moreover, the IC50 in the data set with HL-60 is 32.6 µM; in the data set with PC-3, over 100 µM; with MDA-MB-231, 0.21 µM.
Turning to `CC[C@H](N)C(=O)N[C@@H]1C(=O)N2[C@@H](CC[C@@H]1CCNC(=O)NCc1ccccc1)CC[C@H]2C(=O)NC(c1ccccc1)c1ccccc1`, in data set [1], the Stability is 65%. For the same molecule, the 50% inhibitory concentration (IC50) with HL-60 is 83.3 µM; in the data set with PC-3, over 100 µM; with MDA-MB-231, 10.8 µM.
Consider `CC[C@H](NC)C(=O)N[C@@H]1C(=O)N2[C@@H](CC[C@@H]1CCNCc1ccccc1)CC[C@H]2C(=O)NC(c1ccccc1)c1ccccc1`, for which the solubility entry in data set [3] and in data set [5] was “Soluble” each time. The Stability in data set [1] turned out to be 81%. In addition, the IC50 in the data set on HL-60 was 5.2 µM; with PC-3, 7.8 µM; in data set [4], 0.11 µM; in the data set on MDA-MB-231, 0.141 µM; in data set [2], 0.027 µM.
Take `CC[C@H](NC)C(=O)N[C@@H]1C(=O)N2[C@@H](CC[C@@H]1CCNC(=O)NCc1ccccc1)CC[C@H]2C(=O)NC(c1ccccc1)c1ccccc1`: the Stability in data set [1] came to 51%. Also, the IC50 amounted to 52.2 µM in the data set with HL-60, 83.5 µM in the data set on PC-3 and 1.2 µM with MDA-MB-231.
As to `CC[C@H](N)C(=O)N[C@@H]1C(=O)N2[C@@H](CC[C@@H]1CCNCc1ccccc1)CC[C@H]2C(=O)NC(c1ccccc1)c1ccccc1`, the IC50 with HL-60 amounted to 15.4 µM; in the data set on PC-3, 39.2 µM; with MDA-MB-231 it was 0.4 µM.
On the same counts, the results for `CC[C@H](N)C(=O)N[C@@H]1C(=O)N2[C@@H](CC[C@@H]1CCO)CC[C@H]2C(=O)NC(c1ccccc1)c1ccccc1` are over 100 µM, over 100 µM and 1.8 µM.
In the case of `CC[C@H](NC)C(=O)N[C@@H]1C(=O)N2[C@@H](CC[C@@H]1CCO)CC[C@H]2C(=O)NC(c1ccccc1)c1ccccc1`, the IC50 in the data set on HL-60 is 74.8 µM; with PC-3, over 100 µM; in the data set on MDA-MB-231, 0.173 µM.
In the case of `CC[C@H](N)C(=O)N[C@@H]1C(=O)N2[C@@H](CC[C@@H]1CN)CC[C@H]2C(=O)NC(c1ccccc1)c1ccccc1`, the Stability in data set [1] is 93%. Further, the IC50 was 69.3 µM in the data set on HL-60, over 100 µM in the data set with PC-3 and 6.03 µM in the data set with MDA-MB-231.
In the same order, the values of `CCNC[C@H]1CC[C@H]2CC[C@@H](C(=O)NC(c3ccccc3)c3ccccc3)N2C(=O)[C@H]1NC(=O)[C@@H](N)CC` are 81%, 84 µM, over 100 µM and 0.286 µM.
On to `CCNCC[C@H]1CC[C@H]2CC[C@@H](C(=O)NC(c3ccccc3)c3ccccc3)N2C(=O)[C@H]1NC(=O)[C@@H](N)CC`, for which the IC50 in the data set with HL-60 is 62.8 µM; in the data set on PC-3 it was over 100 µM; in the data set with MDA-MB-231, 8 µM.
For `CC[C@H](N)C(=O)N[C@@H]1C(=O)N2[C@@H](CC[C@@H]1CNC(=O)NCc1ccccc1)CC[C@H]2C(=O)NC(c1ccccc1)c1ccccc1`, the Stability in data set [1] was determined as 73%. The IC50 is 51 µM in the data set with HL-60, over 100 µM in the data set with PC-3 and 3.4 µM with MDA-MB-231.
For the molecule `CC[C@H](N)C(=O)N[C@@H]1C(=O)N2[C@@H](CC[C@@H]1CNC(=O)c1ccccc1)CC[C@H]2C(=O)NC(c1ccccc1)c1ccccc1`, the Stability in data set [1] was found to be 81%. Further, the IC50 in the data set with HL-60 turned out to be 36 µM; in the data set on PC-3, 80.1 µM.
Consider `CC[C@H](N)C(=O)N[C@@H]1C(=O)N2[C@@H](CC[C@@H]1CNCc1ccccc1)CC[C@H]2C(=O)NC(c1ccccc1)c1ccccc1`, for which the values for the IC50 with HL-60, in the data set on PC-3 and with MDA-MB-231 were 13.1 µM, 24.1 µM and 0.099 µM, respectively.

For the origin of these results see ChEMBL document CHEMBL1154119, “Rational design, synthesis and characterization of potent, non-peptidic Smac mimics/XIAP inhibitors as proapoptotic agents for cancer therapy” (Bioorg Med Chem, 2009).
